Data from patent publication US9186340B2, “Ischemia/reperfusion protection compositions and methods of using” (priority 2007, dated 2015).

Legend:
[1] = tested on: rats subjected to 60% blood loss; test: Rat hemorrhagic shock, 60% blood loss (Example 3); type: in vivo
Procedure: Rats infused with ketone bodies were subjected to 60% blood loss for at least 1 hour, followed by return of the shed blood. Endpoint measures of neuroprotection were quantitative analysis of neuronal survival and apoptosis in cortex, hippocampus and cerebellum as well as neurologic function exam scores. The objective was to determine the effectiveness of the D-form of beta-hydroxybutyrate (D-BHB) in conjunction with melatonin in protecting the brain from ischemia and providing protection from reperfusion injury after blood return.
The goal of the following experiments was to maintain 60% blood loss for at least three hours using a minimal amount of fluid in order to maintain viability. Sixty-percent blood loss was calculated by using the equation: Total blood volume=Animal body weight×0.06. A bolus volume of 1 ml ischemia/reperfusion protection composition per kilogram of animal body weight was given to animals after approximately 40% blood loss. Some animals only received a single 1 ml/kg bolus, while other animals received a slow infusion (100 μl/hr) to imitate an intravenous drip of solution after the bolus was given. […]
Once rats were fully anesthesized and stabilized for a 20 min period, blood loss was begun. […] Temperature was monitored with a rectal probe. […] Animal death was recorded when blood pressure, respiration, and precordial movement ceased (see FIG. 9 for a timeline). […]

[2] = tested on: heart of hibernating ground squirrels; conditions: in vivo, ip
Procedure: The overall strategy of these experiments was to measure incorporation of isotope from infused ^13C-BHB into the brain pool of ^13C-BHB and into the tricarboxylic acid (TCA) cycle-derived metabolites such as glutamate, glutamine and aspartate. The same experiments were performed in parallel using [1-^13C2]-glucose (FIG. 1). A quantitative determination of BHB blood-brain transport and a rate of consumption (relative to glucose consumption) was determined in non-hibernating ground squirrels at euthermic temperatures and in hibernating ground squirrels at 4-6° C. Ground squirrels were anesthetized (isoflurane) prior to placement in the magnet of the magnetic resonance (MR) instrument and were injected with ^13C-BHB or [1-^13C2]-glucose.

| transport into the heart during hibernation [2] | Compound | survival following hemorrhagic shock versus 4 M NaCl ([1]; 60% blood loss, same osmolarity NaCl comparator) | survival versus NaCl, bolus followed by infusion ([1]; bolus followed by 100 μl/hr infusion, p-value<0.016) |
| --- | --- | --- | --- |
| – | C[C@@H](O)CC(=O)O [D-BHB, D-beta-hydroxybutyrate] | survived longer | lived significantly longer |
| efficiently transported into the heart | [13CH3][C@@H](O)[13CH2]C(=O)O [^13C-D-BHB, [2,4-^13C] D-beta-hydroxybutyrate] | – | – |
